“Also recorded” adds a separate entry of the source. Starred links: 1 amine or outer side, 2 acyl side, 3 side chain; linkers in the order of their positions; H or OH if unused. Non-standard residues stand in square brackets, D forms with d. Residues, ends and D or L forms follow the SMILES beside them. *: point of attachment. Sta = CC(C)C[C@H](N)[C@@H](O)CC(=O)O; Glutaryl = O=C(CCCC(=O)[*:2])[*:1]; AMC = Cc1cc(=O)oc2cc(N*)ccc12; Suc = O=C(CCC(=O)[*:2])[*:1]; Isovaleryl = CC(C)CC(=O)*; Boc = CC(C)(C)OC(=O)*
Legend:
[1] = test system: human tryptase-like protein; assay: Effects of inhibitors on the trypsin-like activity; assay type: biochemical; details: 10 µM inhibitor; for Inhibition (%) / Activity: substrate Boc-Gln-Gly-Arg-MCA; for Activity: control 843.1
Experimental: (§1) Enzyme activity of the human tryptase-like protein during the course of purification or after purification was measured as follows. The enzyme sample was added to 0.1 M Tris-HCl buffer (pH 7.8) containing 25 mM calcium chloride and 100 µM of fluorogenic substrate. The fluorescence was measured with excitation and emmision wavelength of 380 nm and 460 nm, respectively.
Effects of inhibitors on the trypsin-like activity of the human tryptase-like protein was examined using Boc-Gln-Gly-Arg-MCA as substrate.

[2] = test system: human tryptase-like protein; assay: Enzyme activity with fluorogenic substrates (substrate specificity); assay type: biochemical; details: for Activity: Substrate 100 µM, 0.1 M Tris-HCl pH 7.8, 25 mM calcium chloride; for %: activity relative to Boc-Gln-Gly-Arg-MCA (100), substrate 100 µM; for hydrolysis by human tryptase-like protein: trypsin-like or chymotrypsin-like activity
Experimental: as §1, with “respectively. Effects of inhibitors on the enzyme activity were examined by adding 10 µM each of inhibitor to the reaction solution described above.” for “respectively.”

Compound | Inhibition (%) [1] | Activity [1] | Activity [2] | % [2] | inhibition of trypsin-like activity [1] | hydrolysis by human tryptase-like protein [2]
N=C(N)c1ccccc1 [Benzamidine] | 3% | 817.8 µU/ml |  |  |  | 
Cc1cc(=O)oc2cc(NC(=O)[C@H](CCCNC(=N)N)NC(=O)[C@@H]3CCCN3C(=O)[C@@H](NC(=O)OC(C)(C)C)C(C)C)ccc12 [Boc-Val-Pro-Arg-MCA] (Boc-Val-Pro-Arg-{AMC}) |  |  | 66.6 µU/ml | 9% |  | 
CC(=O)N[C@@H](CC(C)C)C(=O)N[C@@H](CC(C)C)C(=O)N[C@H](C=O)CCCNC(=N)N [Leupeptin] | 87% | 110.9 µU/ml |  |  | inhibited; also recorded: strongly inhibited | 
CC(C)C[C@H](NC(=O)[C@@H](O)[C@H](N)Cc1ccccc1)C(=O)O [Bestatin] | 0% | 843.0 µU/ml |  |  |  | 
CC(C)C[C@H](NC(=O)N[C@H](C(=O)N[C@@H](CCC(N)=O)C(=O)N[C@@H](C)C=O)[C@@H]1CCNC(=N)N1)C(=O)O [Elastatinal] | 16% | 710.0 µU/ml |  |  |  | 
Cc1ccc(S(=O)(=O)N[C@@H](CCCCN)C(=O)CCl)cc1 [TLCK, Nα-p-tosyl-L-lysine chloromethyl ketone] | 18% | 691.3 µU/ml |  |  |  | 
O=S(=O)(F)Cc1ccccc1 [PMSF, phenylmethylsulfonyl fluoride] | 13% | 732.2 µU/ml |  |  |  | 
Cc1cc(=O)oc2cc(NC(=O)[C@H](CCCNC(=N)N)NC(=O)[C@H](CCCNC(=N)N)NC(=O)[C@H](CC(C)C)NC(=O)OC(C)(C)C)ccc12 [Boc-Leu-Arg-Arg-MCA] (Boc-Leu-Arg-Arg-{AMC}) |  |  | 110.9 µU/ml | 15% |  | 
Cc1cc(=O)oc2cc(NC(=O)[C@H](CCCNC(=N)N)NC(=O)[C@@H](NC(=O)[C@H](CC(C)C)NC(=O)OC(C)(C)C)[C@@H](C)O)ccc12 [Boc-Leu-Thr-Arg-MCA] (Boc-Leu-Thr-Arg-{AMC}) |  |  | 110.9 µU/ml | 15% |  | 
Cc1cc(=O)oc2cc(NC(=O)[C@H](CCCNC(=N)N)NC(=O)[C@H](C)NC(=O)[C@H](CCC(N)=O)NC(=O)OC(C)(C)C)ccc12 [Boc-Gln-Ala-Arg-MCA] (Boc-Gln-Ala-Arg-{AMC}) |  |  | 532.4 µU/ml | 71% |  | 
Cc1cc(=O)oc2cc(NC(=O)[C@H](CCCNC(=N)N)NC(=O)CNC(=O)CCCC(=O)O)ccc12 [Glt-Gly-Arg-MCA] (Glutaryl-Gly-Arg-{AMC}) |  |  | 332.8 µU/ml | 44% |  | 
Cc1cc(=O)oc2cc(NC(=O)[C@H](CCCNC(=N)N)NC(=O)[C@H](CCCNC(=N)N)NC(=O)CNC(=O)OC(C)(C)C)ccc12 [Boc-Gly-Arg-Arg-MCA] |  |  | 44.4 µU/ml | 6% |  | 
Cc1cc(=O)oc2cc(NC(=O)[C@H](CCCNC(=N)N)NC(=O)[C@H](CCCNC(=N)N)NC(=O)[C@H](CCC(N)=O)NC(=O)OC(C)(C)C)ccc12 [Boc-Gln-Arg-Arg-MCA] (Boc-Gln-Arg-Arg-{AMC}) |  |  | 177.5 µU/ml | 24% |  | 
CC(C)CCNC(=O)[C@H](CC(C)C)NC(=O)[C@H]1O[C@@H]1C(=O)O [E-64c] | 11% | 754.4 µU/ml |  |  |  | 
Cc1cc(=O)oc2cc(NC(=O)[C@H](CCCNC(=N)N)NC(=O)[C@H](Cc3ccccc3)NC(=O)[C@@H]3CCCN3)ccc12 [Pro-Phe-Arg-MCA] (H-Pro-Phe-Arg-{AMC}) |  |  | 155.3 µU/ml | 21% |  | 
CC(C)C[C@H](NC(=O)[C@@H](NC(=O)N[C@@H](Cc1ccccc1)C(=O)O)[C@@H]1CCN=C(N)N1)C(=O)N[C@H](C=O)Cc1ccccc1 [Chymostatin] | 47% | 443.8 µU/ml |  |  | inhibited | 
Cc1cc(=O)oc2cc(NC(=O)[C@H](CCCNC(=N)N)NC(=O)[C@H](CCCCN)NC(=O)CNC(=O)OC(C)(C)C)ccc12 [Boc-Gly-Lys-Arg-MCA] (Boc-Gly-Lys-Arg-{AMC}) |  |  | 177.5 µU/ml | 24% |  | 
N-tosyl-L-phenylalanine chloromethyl ketone [TPCK] | 16% | 708.2 µU/ml |  |  |  | 
CC(C)C[C@@H](N)[C@H](O)C(=O)N[C@H](C(=O)N[C@H](C(=O)N[C@@H](CC(=O)O)C(=O)O)C(C)C)C(C)C [Amastatin] | 9% | 767.2 µU/ml |  |  |  | 
Cc1cc(=O)oc2cc(NC(=O)[C@H](CCCNC(=N)N)NC(=O)[C@H](CO)NC(=O)[C@H](Cc3ccccc3)NC(=O)OC(C)(C)C)ccc12 [Boc-Phe-Ser-Arg-MCA] (Boc-Phe-Ser-Arg-{AMC}) |  |  | 177.5 µU/ml | 24% |  | 
CC(C)C[C@H](NP(=O)(O)O[C@@H]1O[C@@H](C)[C@H](O)[C@@H](O)[C@H]1O)C(=O)N[C@@H](Cc1c[nH]c2ccccc12)C(=O)O [Phosphoramidone] | 3% | 820.9 µU/ml |  |  |  | 
Cc1cc(=O)oc2cc(NC(=O)[C@H](Cc3ccc(O)cc3)NC(=O)[C@@H](NC(=O)[C@H](CC(C)C)NC(=O)[C@H](CC(C)C)NC(=O)CCC(=O)O)C(C)C)ccc12 [Suc-Leu-Leu-Val-Tyr-MCA] (Suc-LLVY-{AMC}) |  |  | 244.1 µU/ml | 32% |  | cleaves; also recorded: hydrolized most rapidly
Cc1cc(=O)oc2cc(NC(=O)[C@H](CCCCN)NC(=O)[C@H](CCCCN)NC(=O)[C@H](CCC(=O)O)NC(=O)OC(C)(C)C)ccc12 [Boc-Glu-Lys-Lys-MCA] (Boc-Glu-Lys-Lys-{AMC}) |  |  | 221.9 µU/ml | 29% |  | 
Cc1cc(=O)oc2cc(NC(=O)[C@H](CCCNC(=N)N)NC(=O)CNC(=O)[C@H](CCC(N)=O)NC(=O)OC(C)(C)C)ccc12 [Boc-Gln-Gly-Arg-MCA] (Boc-Gln-Gly-Arg-{AMC}) |  |  | 754.4 µU/ml | 100% |  | cleaves; also recorded: hydrolyzed most rapidly
CC[C@H](C)[C@H](NC(=O)OC(C)(C)C)C(=O)N[C@@H](CCC(=O)O)C(=O)NCC(=O)N[C@@H](CCCNC(=N)N)C(=O)Nc1ccc2c(C)cc(=O)oc2c1 [Boc-Ile-Glu-Gly-Arg-MCA] (Boc-IEGR-{AMC}) |  |  | 355.0 µU/ml | 47% |  | 
Cc1cc(=O)oc2cc(NC(=O)[C@H](CCCNC(=N)N)NC(=O)[C@@H]3CCCN3C(=O)CNC(=O)[C@H](C)NC(=O)OC(C)(C)C)ccc12 [Boc-Ala-Gly-Pro-Arg-MCA] (Boc-AGPR-{AMC}) |  |  | 199.7 µU/ml | 26% |  | 
Cc1cc(=O)oc2cc(NC(=O)[C@H](Cc3ccccc3)NC(=O)[C@@H]3CCCN3C(=O)[C@H](C)NC(=O)[C@H](C)NC(=O)CCC(=O)O)ccc12 [Suc-Ala-Ala-Pro-Phe-MCA] (Suc-AAPF-{AMC}) |  |  | 110.9 µU/ml | 15% |  | 
CC(C)CC(=O)N[C@H](C(=O)N[C@H](C(=O)N[C@@H](CC(C)C)[C@@H](O)CC(=O)N[C@@H](C)C(=O)N[C@@H](CC(C)C)[C@@H](O)CC(=O)O)C(C)C)C(C)C [Pepstatin] (Isovaleryl-VV[Sta]A[Sta]-OH) | 0% | 845.0 µU/ml |  |  |  | 
